# Measured values from PMC11375702, “Early Preclinical Studies of Ergosterol Peroxide and Biological Evaluation of Its Derivatives” (ACS Omega, 2024).
# Read-outs that look alike come from different tables or passages of the source.
# Key:
# SUM149 = test: CellTiter-Glo 72 h cytotoxicity assay, SUM149; assay type: cell-based; settings: Homo sapiens; for EC50: SUM149, CTG assay, 72 h; for IC50: calculated from SUM149 EC50
# Description: (§1) First, topological polar surface area (tPSA), a widely used molecular descriptor that provides insight into compound absorption and membrane penetration, was theoretically calculated for these compounds along with the estimated c log P (partition coefficient) or log P to further assess their global therapeutic potential.[18],[19] Lipophilicity, a measurable and predictable physical property, can provide practical guidance in designing compounds with improved molecular properties.[20] The tPSA sums the contribution of the surface area of polar atoms, enabling us to determine whether the compounds are more likely to be cell membrane permeable. The aqueous solubility was measured by ultraviolet/visible (UV/vis) spectroscopy.[21] […] EP shares an improved cLogP, but still relatively high from a desirable drug candidate (2.5–3.5). […] Compound 4 has a higher c log P, while compounds 5–10 have lower c log P values. To determine LiPE (lipophilicity efficiency), the following formula was used: LiPE = pIC50 – log P, according to established methods.[22],[23] […] The obtained EC50 values for the newly generated EP derivatives were within a similar range for other derivatives previously described against TNBC models.[17]
# (§2) The following stable human cell lines were utilized for this study: SUM149 and MDA-MB-231 (breast cancer models) and BJ (human normal fibroblast, foreskin). Cells were purchased from BioIVT or the American Type Culture Collection (ATCC). Cells were cultured in F-12-Nutrient Mixture (SUM149), DMEM (MDA-MB-231), or EMEM (BJ) medium supplemented with 10% fetal bovine serum (Sigma-Aldrich, St. Louis, MO) and 2 mmol of L-glutamine, at 37 °C in a humidified 5% CO2 atmosphere (no antibiotics) as indicated by the manufacturer. Cell cultures were grown to 80–90% confluence before use, except where otherwise specified. Our cell lines are authenticated every 3 months using the CellCheck service (Idexx BioResearch, Westbrook, ME). Cells were tested for mycoplasma prior to use (MycoAlert detection Kit Lonza LT07–318) and discarded if they tested positive. A cell proliferation assay was performed using the CellTiter-Glo (Promega Corp., Madison, WI) luminescent cell viability assay kit. Cells were detached with trypsin, counted, and seeded in white polystyrene flat-bottom sterile 96-well tissue culture-treated plates (catalog no. 3917, Corning, Glendale, Arizona) and incubated overnight at 37 °C. MDA-MB231, SUM149, and BJ cells were seeded into 96-well plates at concentrations experimentally determined (0.4 × 10^4, 0.25 × 10^4, and 0.3 × 10^4 cells per well, respectively) to ensure logarithmic growth during the duration of the experiment and to prevent adverse effects on cell growth by DMSO exposure. The plates were incubated for 12 h before treatment. Stock solutions of test compounds (10 mM in DMSO) in nine 3-fold serial dilutions were dispensed. The final concentration of DMSO was 0.3% (v/v) in each well. The positive control used was staurosporine (10 μM) as the kill-all control, and the negative control used is DMSO as we have published. Staurosporine is a potent alkaloid inducer of various cell death modalities but primarily apoptosis, making it a reliable positive control for viability assays. The plates were incubated for 72 h and then quenched with CTG at 50 μL per well at RT. Plates were then incubated at RT for 20 min and centrifuged at 1000 rpm for 1 min. Luminescence was read on a CLARIOstar Plus plate reader (BMG LabTech, Ortenberg, Germany).
# Three or four technical replicates were conducted for each experimental condition, and a minimum of three independent experiments were conducted for each assay. In vitro ADME values were expressed as mean ± standard deviation (SD) of at least three independent experiments. One-way analysis of variance (ANOVA) was adopted for comparisons among groups using the GraphPad Prism 10.2.3 (GraphPad Software, San Diego, CA). A difference of P < 0.05 was considered as statistically significant. […]
# MDA-MB-231 = test: CellTiter-Glo 72 h cytotoxicity assay, MDA-MB-231; assay type: cell-based; settings: Homo sapiens, CTG assay, read-out: MDA-MB231 (EC50)
# Protocol: as §2
# (§3) Three or four technical replicates were conducted for each experimental condition, and a minimum of three independent experiments were conducted for each assay. In vitro ADME values were expressed as mean ± standard deviation (SD) of at least three independent experiments. One-way analysis of variance (ANOVA) was adopted for comparisons among groups using the GraphPad Prism 10.2.3 (GraphPad Software, San Diego, CA). A difference of P < 0.05 was considered as statistically significant. Data are expressed as mean ± SEM. For CTG, the mean luminescence of each experimental treatment group was normalized as a percentage of the mean intensity of untreated controls (DMSO as vehicle). EC50 values were calculated from dose–response curve fitting via nonlinear regression using GraphPad Prism 10.2.3 (GraphPad Software, San Diego, CA). A therapeutic index (TI) between normal and tumor cell lines can be determined (EC50 non-neoplastic cell line BJ)/(EC50 cancer cell line). In vivo studies were analyzed using mixed-effects regression models to compare the changes in tumor volume over time by treatment group. Tumor volume reduction was compared using ANOVA with repeated measures, and all data was considered significant when P < 0.05.
# [1] = Aqueous solubility by UV/vis absorbance; assay type: physicochemical; settings: kinetic from dmso stock
# Description: as §1
# Briefly, clear 96-well PS plates with lids (catalog no. 3903, Corning, Glendale, Arizona) were used for spectrophotometric determination of absorbance with a CLARIOstar Plus plate reader (BMG LabTech, Ortenberg, Germany) to determine at which concentration the compounds are precipitating out of solution. Decrease in transmittance of 2% or higher was considered significant. Compound solutions of 10 mM in DMSO were prepared followed by a serial dilution series, which were vortexed to ensure the solutions were homogeneous. The 96-well plate was then prepared with distilled H2O and allowed to equilibrate for 1.5 h. Then, the plate was placed in a CLARIOstar Plus plate reader or Cytation C10 (Biotek, Agilent) and set to detect absorbance at 220–700 nm. Each well was read individually. Three replicate assays were conducted for each experimental condition, and a minimum of three independent experiments were conducted.
# BJ = test: CellTiter-Glo 72 h cytotoxicity assay, BJ normal fibroblasts; assay type: cell-based; settings: Homo sapiens, CTG assay, noncancerous fibroblasts
# Protocol: as §2, §3
# [2] = Metabolic stability in mouse liver microsomes; assay type: in vitro ADME
# Protocol: (§5) Human and/or mouse microsomal degradation was determined using multiple time points to monitor the rate of disappearance of the parent compound during incubation following the method described by Di et al.[51],[52] […] The metabolic stability was evaluated via the half-life from the least-squares fit of the multiple time points based on first-order kinetics. Waters ACQUITY-TOQ UPLC-MS-MS-UV system was used to analyze the samples as established in various MS core facilities.[51],[52]
# [3] = Metabolic stability in human liver microsomes; assay type: in vitro ADME
# Protocol: as §5
# [4] = Plasma protein binding, rapid equilibrium dialysis (mouse); assay type: in vitro ADME
# Protocol: (§4) This assay determines the plasma protein binding of a drug or compound and free drug concentration in plasma using rapid equilibrium dialysis. We use the Single-Use RED (rapid equilibrium dialysis, Thermo Scientific) devices to allow the aqueous component of plasma containing the free drug/compound through a dialysis membrane (MWCO ∼ 8000). Sample quantification is determined using a Waters ACQUITY-SOQ UPLC-MS-ELDS-UV system.
# [5] = Plasma protein binding, rapid equilibrium dialysis (human); assay type: in vitro ADME
# Protocol: as §4
# in vitro [6] = settings: male, Balb/c, mouse, plasma
# Protocol: (§6) Briefly, pooled blood from 3 animals for experiment (male Balb/c 6–8w from the division of laboratory animal medicine in-house breeding colony) was collected, and the heparinized plasma was prepared. Plasma and test compounds were added to individual wells of a 96-well microtiter plate. Compounds were incubated at 37 °C for the provided time points. All tests were performed in triplicates. The test compound was incubated with plasma at six different time points. The reaction was terminated by methanol containing an internal standard. After centrifugation, the concentration of the test compound in the supernatant was quantified by LC-MS/MS.
# (§7) Plasma stability assay: Briefly, pooled blood from 3 animals for experiment (male Balb/c 6-8w
# (§8) from the division of laboratory animal medicine in-house breeding colony) was collected, and
# (§9) the heparinized plasma was prepared. Plasma and test compounds were added to the individual
# (§10) wells of a 96-well microtiter plate. Compounds were incubated at 37°C for the provided time
# (§11) points. All tests were performed in triplicates. Then, the test compound was incubated with
# (§12) plasma at six different time points. The reaction was terminated by the addition of methanol
# (§13) containing an internal standard. After centrifugation, the concentration of the test compound in
# (§14) the supernatant was quantified by LC-MS/MS. The percentage of test compound remaining at
# (§15) compounds are known to be metabolized by plasma esterases,1 and were also incubated with
# each batch of test compound.
# (§16) A standard protocol and MS method was used for the plasma stability experiment. The extraction
# (§17) procedure for plasma/tissue samples and the spiked plasma/tissue calibration standards were
# (§18) identical: A 25 µL of study sample or spiked plasma/tissue calibration standard was added to
# (§19) individual pre-labeled micro-centrifuge tubes followed by 100 µL of internal standard prepared
# (§20) in Acetonitrile (Albendazole, 500 ng/mL) was added except for blank, where 100 µL of
# (§21) Acetonitrile was added. Samples were vortexed for 5 minutes. Samples were centrifuged for 5
# (§22) minutes at a speed of 4000 rpm at 4°C. Following centrifugation, 100 µL of clear supernatant
# (§23) was transferred in 96 well plates and analyzed using LC-MS/MS mode. The LC system
# (§24) comprises of a binary pump that can mix two mobile phases: A = Water+0.1% formic acid; B =
# (§25) acetonitrile +0.1%formic acid. The system was operated in gradient mode using a 6 minute
# (§26) min, 10-90% A to B in 5.5-6 min, and then hold at this gradient, using a Phenomenex Luna, 150
# (§27) X 4.6 mm, 5 µm column. Source Parameter: positive, Ion Spray Voltage 5500, Temperature
# 550C, interface heater on.
# in vitro [7] = settings: human, plasma
# [8] = Caco-2 permeability assay; assay type: in vitro ADME; settings: human
# Protocol: It was performed in the 96-well Transwell system with a modified method.[36] Caco-2 cells were maintained at 37 °C in a humidified incubator with an atmosphere of 5% CO2. The cells were cultured in MEM containing 20% FBS in […], 100 units/mL penicillin, and 100 μg/mL of streptomycin. The Caco-2 cells were seeded onto inserts of a 96-well plate at a density of 0.5 × 10^5 cells/insert and cultured in the MEM containing 20% FBS for 7 days. Each cultured monolayer on the 96-well plate was washed twice with HBSS/HEPES (10 mM, pH 7.4). The permeability assay was initiated by the addition of each compound solution (10 μmol/L) into inserts (apical side, A) or receivers (basolateral side, B). The Caco-2 cell monolayers were incubated for 2 h at 37 °C. Fractions were collected from receivers (if apical to basal permeability) or inserts (if basal to apical permeability), and concentrations were assessed by UPLC/MS (Waters; Milford, MA). All compounds were tested in triplicates. The A → B (or B → A) apparent permeability coefficients ([…]) of each compound were calculated using the equation Pappa = dQ/dt × 1/AC0. The flux of a drug across the monolayer is dQ/dt (μmol/s). The initial drug concentration on the apical side is C0 (μmol/L). The surface area of the monolayer is A (cm^2).
# [9] = Simulated gastric fluid (SGF) stability; assay type: in vitro ADME; settings: simulated gi fluid; simulated gastric fluid; read-out: SGF stability t1/2 (converted)
# Protocol: The simulated gastric fluid (SGF) assay is an important element in determining the overall drug-like potential of compounds.[29],[30] Anecdotal studies of oral consumption of extracts by humans indicate positive outcomes of digestion of mixtures of EP and its related natural products found in G. lucidum.[2] […] Chlorambucil was used as positive control as previously described.[32],[33] […] Caco-2 permeability studies were conducted to validate and to provide information on EP’s ability to cross the intestinal barrier and its potential for interactions with drug transporters.[36]−[39] The rate of transport in both directions (A-B and B-A) across the cell monolayer enables an efflux ratio (B-A/A-B) to be determined, enabling us to determine if a compound undergoes active efflux (efflux ratio ≥2).
# [10] = Plasma stability assay (mouse); settings: male, Balb/c, mouse, plasma
# Protocol: as §6, §7, §8, §9, §10, §11, §12, §13, §14, §15
# each batch of test compound.
# as §16, §17, §18, §19, §20, §21, §22, §23, §24, §25, §26, §27
# 550C, interface heater on.
# [11] = Plasma stability assay (human)
SMILES,EC50 (SUM149) [µM],IC50 (SUM149) [µM],EC50 (MDA-MB-231) [µM],EC50 (BJ) [µM],solubility at […] ([1]; water) [µg/mL],also measured
"CC(C)[C@@H](C)/C=C/[C@@H](C)[C@H]1CC[C@H]2C3=CC=C4C[C@@H](O)CC[C@]4(C)[C@H]3CC[C@]12C [Compound 1, Ergosterol]",61,61.7,> 120,,,"solubility at […] ([1]; distilled water, distilled H2O, UV/vis, read-out: solubility limit): 0.59 µg/mL"
C=CC(=O)O[C@H]1CC[C@]2(C)[C@H]3CC[C@]4(C)[C@@H]([C@H](C)/C=C/[C@H](C)C(C)C)CC[C@H]4[C@@]34C=C[C@]2(C1)OO4 [Compound 4],31,31.6,47.6,92.5,24.1,
CC(C)[C@@H](C)C1OC1[C@@H](C)[C@H]1CC[C@@H]2[C@]1(C)CC[C@H]1[C@]23C=C[C@]2(C[C@@H](O)CC[C@]12C)OO3 (stereo partly shown) [Compound 5],2.74,2.75,15.7,70.4,5.56,
CC(C)[C@@H](C)C1OC1[C@@H](C)[C@H]1CC[C@@H]2[C@]1(C)CC[C@H]1[C@]23C=C[C@]2(C[C@@H](OS(=O)(=O)O)CC[C@]12C)OO3 (stereo partly shown) [Compound 5a],2.24,2.29,7.37,48,26.2,
CC(C)[C@@H](C)/C=C/[C@@H](C)[C@H]1CC[C@@H]2[C@]1(C)CC[C@H]1[C@@]23OO[C@@]2(C[C@@H](O)CC[C@]12C)C(O)C3O (stereo partly shown) [Compound 6],14.5,14.8,25.4,135,23.1,
CC(C)[C@@H](C)/C=C/[C@@H](C)[C@H]1CC[C@@H]2[C@]1(C)CC[C@H]1[C@]23C=C[C@]2(C[C@@H](OC(=O)NS(=O)(=O)c4ccccc4)CC[C@]12C)OO3 [Compound 7],5.6,5.62,12,47.1,26.8,"metabolic stability (mouse) clint [2]: 63.82 mL/Min/K g; half-life ([2]; female, CD-1, pooled liver microsomes, read-out: metabolic stability (mouse) t1/2 (converted)): 54 min; metabolic stability (human) clint [3]: 24.91 mL/Min/K g; half-life ([3]; both sexes, pooled liver microsomes, read-out: metabolic stability (human) t1/2 (converted)): 49.8 min; fraction unbound [4]: 0.0017; fraction unbound [5]: 0.0062; half-life (in vitro [6]): > 2880 min; half-life (in vitro [7]): > 2880 min"
CC(C)[C@@H](C)C(O)C(O)[C@@H](C)[C@H]1CC[C@@H]2[C@]1(C)CC[C@H]1[C@@]23OO[C@@]2(C[C@@H](O)CC[C@]12C)C(O)C3O (stereo partly shown) [Compound 8],6.42,6.46,29.7,172,24.8,
CC(C)[C@@H](C)/C=C/[C@@H](C)[C@H]1CC[C@@H]2[C@]1(C)CC[C@H]1[C@]23C=C[C@]2(C[C@@H](OS(=O)(=O)O)CC[C@]12C)OO3 [Compound 9],2.7,2.75,3.47,50,15.5,
CC(C)[C@@H](C)/C=C/[C@@H](C)[C@H]1CC[C@@H]2[C@]1(C)CC[C@H]1[C@@]23OO[C@@]2(C[C@@H](OS(=O)(=O)O)CC[C@]12C)C(OS(=O)(=O)O)C3OS(=O)(=O)O (stereo partly shown) [Compound 10],3.11,3.09,10.7,77.9,17.8,
"NC(=O)N1c2ccccc2C=Cc2ccccc21 [carbamazepine, reference compound]",,,,,,"efflux ratio at 2 h, 10 µmol/L ([8]; Caco-2, pH 7.4, Caco-2, read-out: efflux ratio (B2A/A2B)): 0.74; Papp A→B at 2 h, 10 µmol/L ([8]; Caco-2, pH 7.4, apical to basolateral): 37.6 ×10⁻⁶ cm/s; Papp B→A at 2 h, 10 µmol/L ([8]; Caco-2, pH 7.4, basolateral to apical): 27.7 ×10⁻⁶ cm/s"
"O=C(O)CCCc1ccc(N(CCCl)CCCl)cc1 [chlorambucil, reference compound]",,,,,,half-life [9]: 1110 min
"CC1CC(OC(=O)C(O)c2ccccc2)CC(C)(C)N1C (stereo not shown) [eucatropine, reference compound]",,,,,,half-life [10]: 112 min; half-life [11]: 24.6 min
